Measured values reported in US8822517B2, “Arylosulfonamides for the treatment of CNS diseases” (Adamed SP. Z O.O., priority 2010, dated 2014).
Where two headings read alike, the source gives them in different places.

Experiments:
muscarinic M3 receptor = target: T1, muscarinic M3 receptor (Homo sapiens, UniProt P20309); assay: Binding assay M3 (h), [3H]4-DAMP, CHO cells; conditions: read-out: M3 [%]
T1 construct: expressed in transfected cells; host or cells: CHO cells
Method in brief: (§1)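 Tested at 1×10^−6 M. Specific binding: total minus binding remaining with excess cold ligand. Detection: scintillation counting.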

[1] = target: serotoninergic 5-HT2A receptor (Homo sapiens, UniProt P28223); assay: Binding assay 5-HT2A (h), [3H]ketanserin, HEK-293 cells; set-up: expressed in transfected cells; host or cells: HEK-293 cells; conditions: read-out: 5-HT2A
serotoninergic 5-HT2A receptor, sequence (P28223 whole entry): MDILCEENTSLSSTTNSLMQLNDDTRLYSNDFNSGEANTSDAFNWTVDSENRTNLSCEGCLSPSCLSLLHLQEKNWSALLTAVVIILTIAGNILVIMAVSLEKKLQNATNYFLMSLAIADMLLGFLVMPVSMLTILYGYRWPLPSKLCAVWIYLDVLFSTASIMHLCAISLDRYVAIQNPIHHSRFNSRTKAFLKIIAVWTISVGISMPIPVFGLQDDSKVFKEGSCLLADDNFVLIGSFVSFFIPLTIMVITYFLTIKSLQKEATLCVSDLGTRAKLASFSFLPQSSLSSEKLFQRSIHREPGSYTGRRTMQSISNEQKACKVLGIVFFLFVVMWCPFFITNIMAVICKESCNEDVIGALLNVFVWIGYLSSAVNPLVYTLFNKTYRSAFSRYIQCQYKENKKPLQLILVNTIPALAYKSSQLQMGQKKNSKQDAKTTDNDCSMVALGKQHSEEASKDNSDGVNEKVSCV
Method in brief: as §1

[2] = target: T2, serotoninergic 5-HT6 receptor (Homo sapiens, UniProt P50406); assay: Binding assay 5-HT6 (h), [3H]LSD, CHO cells; set-up: expressed in transfected cells; host or cells: CHO cells; conditions: read-out: 5-HT6
Method in brief: as §1

[3] = target: T3, serotoninergic receptor 5-HT2C (Homo sapiens, UniProt P28335); assay: Binding assay 5-HT2C (h), [3H]mesulergine, HEK-293 cells; conditions: read-out: 5-HT2C [%]
T3 construct: expressed in transfected cells; host or cells: HEK-293 cells
T3 sequence (P28335 33-458): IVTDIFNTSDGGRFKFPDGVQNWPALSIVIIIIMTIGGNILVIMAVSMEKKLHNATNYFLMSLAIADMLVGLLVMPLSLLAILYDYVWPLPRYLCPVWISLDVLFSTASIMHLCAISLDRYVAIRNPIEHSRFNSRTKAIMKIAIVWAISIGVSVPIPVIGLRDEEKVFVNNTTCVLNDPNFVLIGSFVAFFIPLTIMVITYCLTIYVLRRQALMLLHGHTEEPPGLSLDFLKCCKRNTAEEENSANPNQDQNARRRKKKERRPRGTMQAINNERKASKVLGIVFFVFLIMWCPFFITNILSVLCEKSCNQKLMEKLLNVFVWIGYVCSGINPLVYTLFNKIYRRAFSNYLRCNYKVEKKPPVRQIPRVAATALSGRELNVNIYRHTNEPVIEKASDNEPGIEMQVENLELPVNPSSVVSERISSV
Method in brief: as §1

[4] = target: T4, serotonine transporter (SERT) receptor (Homo sapiens, UniProt P31645); assay: Binding assay SERT (h), [3H]imipramine, CHO cells; conditions: read-out: SERT [%]
T4 construct: expressed in transfected cells; host or cells: CHO cells
T4 sequence (P31645 whole entry): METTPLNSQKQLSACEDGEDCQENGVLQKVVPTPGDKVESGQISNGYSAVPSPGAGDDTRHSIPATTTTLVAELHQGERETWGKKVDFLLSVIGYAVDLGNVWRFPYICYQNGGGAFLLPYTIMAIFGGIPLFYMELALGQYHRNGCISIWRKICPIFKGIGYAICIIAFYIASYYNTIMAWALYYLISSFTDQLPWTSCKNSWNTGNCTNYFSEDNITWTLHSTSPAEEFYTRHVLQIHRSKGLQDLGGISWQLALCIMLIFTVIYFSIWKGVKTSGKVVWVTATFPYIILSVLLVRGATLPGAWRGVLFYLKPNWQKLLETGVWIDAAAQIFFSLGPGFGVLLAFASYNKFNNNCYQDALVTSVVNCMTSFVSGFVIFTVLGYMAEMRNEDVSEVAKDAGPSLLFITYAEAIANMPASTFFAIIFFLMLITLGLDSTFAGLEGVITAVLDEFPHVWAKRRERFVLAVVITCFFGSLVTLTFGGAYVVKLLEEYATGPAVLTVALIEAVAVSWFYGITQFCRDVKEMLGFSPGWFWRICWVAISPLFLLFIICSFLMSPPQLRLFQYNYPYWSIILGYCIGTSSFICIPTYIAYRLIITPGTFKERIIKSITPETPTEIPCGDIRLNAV
Method in brief: as §1

dopaminergic D2 receptor = dopaminergic D2 receptor (Homo sapiens, UniProt P14416); assay: Binding assay D2S (h), [3H]methyl-spiperone, HEK-293 cells; set-up: expressed in transfected cells; host or cells: HEK-293 cells; conditions: read-out: D2 [%]
dopaminergic D2 receptor, sequence (P14416 1-414 isoform P14416-2): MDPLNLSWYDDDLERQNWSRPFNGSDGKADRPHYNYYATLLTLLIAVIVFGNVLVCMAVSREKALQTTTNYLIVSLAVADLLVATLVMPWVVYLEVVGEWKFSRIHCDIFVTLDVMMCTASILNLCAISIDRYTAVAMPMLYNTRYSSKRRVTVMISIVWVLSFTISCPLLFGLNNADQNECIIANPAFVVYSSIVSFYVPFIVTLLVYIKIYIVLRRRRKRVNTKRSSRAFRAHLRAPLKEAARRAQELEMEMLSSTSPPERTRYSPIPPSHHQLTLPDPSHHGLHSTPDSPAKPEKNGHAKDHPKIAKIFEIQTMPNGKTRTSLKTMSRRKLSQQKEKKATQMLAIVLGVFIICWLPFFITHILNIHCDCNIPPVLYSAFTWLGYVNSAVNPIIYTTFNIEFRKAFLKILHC
Method in brief: as §1

[5] = target: T2, serotoninergic 5-HT6 receptor; assay: Cellular functional assay, serotoninergic 5-HT6 receptor (agonism/antagonism); type: cell-based; conditions: read-out: 5-HT6-antag. [%]
Protocol: (§2) The compounds were tested at the concentration of 1×10^−6M.
(§3) In the Tables ag refers to agonism, and antag to antagonism).

[6] = target: histaminergic H1 receptor (Homo sapiens, UniProt P35367); assay: Binding assay H1 (h), [3H]pyrilamine, HEK-293 cells; set-up: expressed in transfected cells; host or cells: HEK-293 cells; conditions: read-out: H1 [%]
histaminergic H1 receptor, sequence (P35367 whole entry): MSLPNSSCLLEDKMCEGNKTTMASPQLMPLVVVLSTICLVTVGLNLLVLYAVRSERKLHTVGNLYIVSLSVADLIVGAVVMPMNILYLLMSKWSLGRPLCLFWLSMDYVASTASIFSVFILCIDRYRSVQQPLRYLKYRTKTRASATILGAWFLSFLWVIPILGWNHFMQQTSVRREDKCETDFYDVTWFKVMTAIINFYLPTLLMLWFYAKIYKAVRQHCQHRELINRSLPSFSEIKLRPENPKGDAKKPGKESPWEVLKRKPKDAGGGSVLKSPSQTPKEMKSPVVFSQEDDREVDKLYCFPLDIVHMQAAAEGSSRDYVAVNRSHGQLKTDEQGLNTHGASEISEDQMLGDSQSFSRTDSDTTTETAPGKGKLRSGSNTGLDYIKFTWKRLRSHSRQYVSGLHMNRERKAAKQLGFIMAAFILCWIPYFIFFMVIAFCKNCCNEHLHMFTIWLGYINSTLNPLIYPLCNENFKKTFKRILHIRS
Method in brief: as §1

[7] = target: T5, serotoninergic 5-HT7 receptor (Homo sapiens, UniProt P34969); assay: Binding assay 5-HT7 (h), [3H]LSD, CHO cells; set-up: expressed in transfected cells; host or cells: CHO cells; conditions: read-out: 5-HT7
T5 sequence (P34969 whole entry): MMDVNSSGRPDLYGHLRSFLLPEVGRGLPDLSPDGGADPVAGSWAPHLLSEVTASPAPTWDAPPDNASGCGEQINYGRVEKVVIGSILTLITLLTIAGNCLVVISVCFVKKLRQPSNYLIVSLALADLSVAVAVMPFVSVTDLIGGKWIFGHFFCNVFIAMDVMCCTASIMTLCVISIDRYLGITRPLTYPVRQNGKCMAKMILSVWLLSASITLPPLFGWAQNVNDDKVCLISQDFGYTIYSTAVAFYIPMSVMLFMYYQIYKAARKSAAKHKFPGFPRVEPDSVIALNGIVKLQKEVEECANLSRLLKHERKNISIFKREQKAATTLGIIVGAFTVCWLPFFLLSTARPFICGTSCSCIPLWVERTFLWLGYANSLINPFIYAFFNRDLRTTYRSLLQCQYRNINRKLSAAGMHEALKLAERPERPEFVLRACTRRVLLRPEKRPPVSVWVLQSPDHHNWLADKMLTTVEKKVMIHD
Method in brief: as §1

dopaminergic D3 receptor = dopaminergic D3 receptor (Homo sapiens, UniProt P35462); assay: Binding assay D3 (h), [3H]methyl-spiperone, CHO cells; set-up: expressed in transfected cells; host or cells: CHO cells; conditions: read-out: D3 [%]
dopaminergic D3 receptor, sequence (P35462 whole entry): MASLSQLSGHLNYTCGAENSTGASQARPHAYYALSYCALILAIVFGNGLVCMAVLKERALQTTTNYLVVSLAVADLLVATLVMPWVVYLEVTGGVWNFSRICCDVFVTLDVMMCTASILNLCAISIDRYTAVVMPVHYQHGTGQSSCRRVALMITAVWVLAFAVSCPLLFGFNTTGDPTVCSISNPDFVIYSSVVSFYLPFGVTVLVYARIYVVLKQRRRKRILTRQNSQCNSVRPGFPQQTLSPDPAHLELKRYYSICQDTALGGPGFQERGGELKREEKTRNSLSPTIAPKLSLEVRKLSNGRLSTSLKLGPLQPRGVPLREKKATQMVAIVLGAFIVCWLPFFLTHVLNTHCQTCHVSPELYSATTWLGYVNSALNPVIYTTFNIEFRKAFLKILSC
Method in brief: as §1

adrenergic α2C receptor = target: T6, adrenergic α2C receptor (Homo sapiens, UniProt P18825); assay: Binding assay α2C (h), [3H]RX 821002, CHO cells; set-up: expressed in transfected cells; host or cells: CHO cells; conditions: read-out: α2C [%]
T6 sequence (P18825 1-462): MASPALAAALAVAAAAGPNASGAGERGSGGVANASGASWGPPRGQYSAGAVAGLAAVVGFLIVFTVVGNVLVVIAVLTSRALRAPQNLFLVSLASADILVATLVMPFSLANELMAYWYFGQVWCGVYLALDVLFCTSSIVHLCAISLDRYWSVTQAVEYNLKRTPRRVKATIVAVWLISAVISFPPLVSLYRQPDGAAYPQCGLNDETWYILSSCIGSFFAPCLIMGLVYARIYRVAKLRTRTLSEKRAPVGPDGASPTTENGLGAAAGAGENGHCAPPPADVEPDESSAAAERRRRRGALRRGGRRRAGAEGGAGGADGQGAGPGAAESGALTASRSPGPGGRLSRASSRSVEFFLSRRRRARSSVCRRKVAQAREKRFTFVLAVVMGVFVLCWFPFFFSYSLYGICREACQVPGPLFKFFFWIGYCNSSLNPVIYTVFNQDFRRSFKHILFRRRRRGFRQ
Method in brief: as §1

[8] = target: T5, serotoninergic 5-HT7 receptor; assay: Cellular functional assay, serotoninergic 5-HT7 receptor (agonism/antagonism); type: cell-based; conditions: for activation at 1 µM: agonist effect, percent of control specific agonist response, compounds tested at 1×10^−6M, read-out: 5-HT7-ag [%]; for inhibition at 1 µM: read-out: 5-HT7-antag. [%]
Protocol: as §2, §3

[9] = target: T7, serotoninergic 5-HT1A receptor (Homo sapiens, UniProt P08908); assay: Binding assay 5-HT1A (h), [3H]8-OH-DPAT, HEK-293 cells; set-up: expressed in transfected cells; host or cells: HEK-293 cells; conditions: read-out: 5-HT1A
T7 sequence (P08908 1-422): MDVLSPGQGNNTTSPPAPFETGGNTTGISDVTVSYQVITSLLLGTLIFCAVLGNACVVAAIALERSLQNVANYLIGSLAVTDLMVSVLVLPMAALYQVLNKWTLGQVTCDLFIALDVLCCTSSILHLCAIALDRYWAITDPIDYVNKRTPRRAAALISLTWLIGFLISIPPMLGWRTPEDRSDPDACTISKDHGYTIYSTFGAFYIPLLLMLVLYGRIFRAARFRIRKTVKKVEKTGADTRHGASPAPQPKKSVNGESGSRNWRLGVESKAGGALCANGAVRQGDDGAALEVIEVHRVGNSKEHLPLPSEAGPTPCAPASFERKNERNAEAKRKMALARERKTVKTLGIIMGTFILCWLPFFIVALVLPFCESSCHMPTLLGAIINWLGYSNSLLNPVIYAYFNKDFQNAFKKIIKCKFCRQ
Method in brief: as §1

hERG potassium channels [10] = target: T8, hERG potassium channels (Homo sapiens, UniProt Q12809); assay: hERG potassium channel block, electrophysiology (IonWorks Quattro), CHO cells; conditions: % block of hERG current, cloned hERG channels in CHO cells, IonWorks Quattro
T8 sequence (Q12809 whole entry): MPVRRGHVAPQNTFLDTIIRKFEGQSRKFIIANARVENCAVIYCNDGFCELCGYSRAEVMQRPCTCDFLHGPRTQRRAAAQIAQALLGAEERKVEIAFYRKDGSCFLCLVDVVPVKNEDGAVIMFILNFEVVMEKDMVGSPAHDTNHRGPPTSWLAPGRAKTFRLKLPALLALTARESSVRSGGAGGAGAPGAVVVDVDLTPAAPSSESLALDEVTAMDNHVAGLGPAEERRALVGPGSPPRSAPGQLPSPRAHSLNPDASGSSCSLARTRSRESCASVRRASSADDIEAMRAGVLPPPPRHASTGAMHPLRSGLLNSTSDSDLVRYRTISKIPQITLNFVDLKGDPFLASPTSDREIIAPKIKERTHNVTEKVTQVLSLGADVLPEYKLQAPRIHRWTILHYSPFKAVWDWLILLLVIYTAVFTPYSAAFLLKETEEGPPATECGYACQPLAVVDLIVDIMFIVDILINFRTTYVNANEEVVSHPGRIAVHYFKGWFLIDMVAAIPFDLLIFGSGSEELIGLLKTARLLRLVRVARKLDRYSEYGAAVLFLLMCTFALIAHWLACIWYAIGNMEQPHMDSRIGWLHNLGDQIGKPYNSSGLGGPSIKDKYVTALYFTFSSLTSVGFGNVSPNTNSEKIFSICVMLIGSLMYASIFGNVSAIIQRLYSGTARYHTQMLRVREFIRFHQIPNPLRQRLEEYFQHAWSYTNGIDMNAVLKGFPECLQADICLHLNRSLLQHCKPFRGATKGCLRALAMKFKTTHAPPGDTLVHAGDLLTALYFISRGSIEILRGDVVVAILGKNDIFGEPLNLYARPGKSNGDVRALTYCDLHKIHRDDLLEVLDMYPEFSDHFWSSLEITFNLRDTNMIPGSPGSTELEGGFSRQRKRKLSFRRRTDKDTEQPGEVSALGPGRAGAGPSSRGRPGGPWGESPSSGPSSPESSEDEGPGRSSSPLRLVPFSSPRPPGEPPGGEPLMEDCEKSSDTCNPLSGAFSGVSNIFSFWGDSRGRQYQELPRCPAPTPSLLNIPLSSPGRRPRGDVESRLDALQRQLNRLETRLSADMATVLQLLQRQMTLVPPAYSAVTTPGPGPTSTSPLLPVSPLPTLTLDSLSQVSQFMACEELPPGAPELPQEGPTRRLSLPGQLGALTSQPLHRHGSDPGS
Protocol: (§4) Ability to block hERG potassium channels was determined using the electrophysiological method and cloned hERG potassium channels (KCNH2 gene, expressed in CHO cells) as biological material. The effects were evaluated using IonWorks™ Quattro system (MDS-AT).
(§5) hERG current was elicited using a pulse pattern with fixed amplitudes (conditioning prepulse: −80 mV for 25 ms; test pulse: +40 mV for 80 ms) from a holding potential of 0 mV. hERG current was measured as a difference between the peak current at 1 ms after the test step to +40 mV and the steady-state current at the end of the step to +40 mV.
(§6) Data acquisition and analyses was performed using the IonWorks Quattro™ system operation software (version 2.0.2; Molecular Devices Corporation, Union City, Calif.). Data were corrected for leak current.

sigma σ receptor = assay: Binding assay σ (non-selective), [3H]DTG, rat cerebral cortex; conditions: percent inhibition of control specific binding; compounds tested at 1×10^−6 M
Method in brief: as §1

adrenergic α1 receptor = assay: Binding assay α1 (non-selective), [3H]prazosin, rat cerebral cortex; conditions: percent inhibition of control specific binding; compounds tested at 1×10^−6 M
Method in brief: as §1

hERG potassium channels [11] = target: T8, hERG potassium channels
Protocol: as §4, §5, §6

T1 sequence (P20309 whole entry): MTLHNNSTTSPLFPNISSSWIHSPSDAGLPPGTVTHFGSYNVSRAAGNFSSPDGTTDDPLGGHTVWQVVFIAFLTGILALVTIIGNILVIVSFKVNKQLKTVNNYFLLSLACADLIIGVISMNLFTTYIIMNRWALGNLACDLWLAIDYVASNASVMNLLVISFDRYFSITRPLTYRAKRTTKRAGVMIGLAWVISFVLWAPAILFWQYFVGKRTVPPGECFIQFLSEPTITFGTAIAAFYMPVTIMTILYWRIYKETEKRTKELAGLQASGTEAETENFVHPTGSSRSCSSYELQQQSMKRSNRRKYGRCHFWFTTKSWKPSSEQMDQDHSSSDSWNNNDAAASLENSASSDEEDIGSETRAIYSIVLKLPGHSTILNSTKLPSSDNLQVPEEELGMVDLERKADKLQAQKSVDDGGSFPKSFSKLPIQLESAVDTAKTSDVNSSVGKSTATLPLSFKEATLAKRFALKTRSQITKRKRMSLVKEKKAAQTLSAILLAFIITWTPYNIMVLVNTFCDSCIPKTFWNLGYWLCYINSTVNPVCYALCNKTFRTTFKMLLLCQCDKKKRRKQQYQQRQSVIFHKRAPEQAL

Row | SMILES | inhibition at 1 µM (muscarinic M3 receptor) [%] | inhibition at 1 µM [1] [%] | inhibition at 1 µM [2] [%] | inhibition at 1 µM [3] [%] | inhibition at 1 µM [4] [%] | inhibition at 1 µM (dopaminergic D2 receptor) [%] | inhibition at 1 µM [5] [%] | inhibition at 1 µM [6] [%] | inhibition at 1 µM [7] [%] | inhibition at 1 µM (dopaminergic D3 receptor) [%] | inhibition at 1 µM (adrenergic α2C receptor) [%] | activation at 1 µM [8] [%] | inhibition at 1 µM [8] [%] | inhibition at 1 µM [9] [%] | hERG [%] (hERG potassium channels [10]) | σ [%] (sigma σ receptor) | α1 [%] (adrenergic α1 receptor) | hERG [%] (hERG potassium channels [11])
1 | O=S(=O)(NCCCN1CCN(c2nsc3ccccc23)CC1)c1cccc2ccccc12 [Compound 5, N-(3-(4-(1,2-Benzothiazol-3-yl)piperazin-1-yl)propyl)naphthalene-1-sulphonamide] | 7 | 99 | 84 | 81 | 84 | 96 | 18 | 92 | 98 | 98 | 99 | -1 | 85 | 99 | 17 | 72 | 98 | –
2 | O=S(=O)(NCCCN1CCN(c2nsc3ccccc23)CC1)c1ccc2ccccc2c1 [Compound 6, N-(3-(4-(1,2-Benzothiazol-3-yl)piperazin-1-yl)propyl)naphthalene-2-sulphonamide] | -1 | 100 | 88 | 88 | 95 | 96 | 26 | 93 | 98 | 97 | 93 | 0 | 66 | 99 | 13 | 59 | 95 | –
3 | Cc1[nH]c2ccc(Cl)cc2c1C1=CCN(CCCNS(=O)(=O)c2cccc(O)c2)CC1 [Compound 445, N-[3-[4-(5-Chloro-2-methyl-1H-indol-3-yl)-3,6-dihydro-2H-pyridin-1-yl]propyl]-3-hydroxybenzenesulphonamide] | 27 | 78 | 84 | 67 | 68 | 98 | – | 60 | 98 | 97 | 69 | – | – | 93 | – | 67 | 50 | 2
